Results from patent US7041466B2, “Mouse disease model for evaluation of prophylactic and therapeutic treatments of Chlamydia” (priority 2002, dated 2006).
“Also recorded” adds a separate entry of the source. Where two headings read alike, the source gives them in different places.

Tests used:
C. psittaci strain B577 = conditions: mouse, in vivo
NO production = conditions: mouse, in vivo
[1] = system: IL-12p70, IFN-γ, NOS2, arginase I, arginase II in lung tissue; conditions: mouse, in vivo, 6 mg/kg
C. psittaci = conditions: mouse, in vivo
splenic CD4+ T cells = conditions: mouse, in vivo, 6 mg/kg/day
C. pneumoniae = conditions: mouse, in vivo

With `CCC[C@H](N)C(=O)O` [L-norvaline] the “chlamydial lung disease (lung weight increase), change in words” value (C. psittaci strain B577) was “significantly increased; also recorded: partially reverted to a disease phenotype”, the “chlamydial lung disease, change in words” value (C. psittaci strain B577) was “did not change the disease” and the day-4 serum nitrite/nitrate (NO production) was 123.22 ± 38.8 µM. For the same compound, the “serum nitrite/nitrate (NO production), change in words” value (NO production) was “significantly increased; also recorded: produced more NO”.

In the case of `N=C(N)NN` [AG, aminoguanidine], the “chlamydial lung burden on day 7” value (C. psittaci strain B577) was “higher chlamydial burdens”, the “day-12 chlamydial lung burden” value (C. psittaci strain B577) was “greatly reduced” and the day-12 disease (C. psittaci strain B577) was “did not show significant changes”. The “day-12 disease (lung weight increase)” value (C. psittaci strain B577) was “developed severe day-12 disease”, the “day-12 disease phenotype (lung weight increase)” value (C. psittaci strain B577) was “completely reversed the severe day-12 disease phenotype; also recorded: completely protected; also recorded: protected from disease” and the “disease outcomes and numbers of chlamydiae in lung tissue” value (C. psittaci strain B577) was “did not change disease outcomes”. The “elimination of chlamydiae from lungs after day 7” value (C. psittaci strain B577) was “significantly more rapidly”, the “NOS2, arginase I and arginase II transcript levels on days 4 and 12” value [1] was “resembled those of BALB/c mice” and the “day-4 pulmonary IFN-γ transcripts” value [1] was “significant increase”. The “day-4 pulmonary concentration of IL-12 p70” value [1] was “significant increase”, the day-4 serum nitrite/nitrate (NO production; 6 mg/kg/day) was 73.2 ± 3.8 µM and the day-4 serum nitrite/nitrate (NO production; 200 mg/kg/day) was 39.7 ± 2.9 µM. The “serum nitrite/nitrate (NO production), change in words” value (NO production; ip) was “significantly reduced; also recorded: reduced NO production of infected C57BL/6 mice in a dose-dependent manner”, the “reduction of chlamydial lung burden” value (C. psittaci) was “more than 10 fold” and the “chlamydial burden on day 7 after secondary infection” value (C. psittaci; 100 mg/kg) was “substantially, but not significantly, higher”. The “disease (interstitial pneumonia) on day 7 after secondary infection” value (C. psittaci; 100 mg/kg) was “completely abolished disease; also recorded: completely abolished the development of interstitial pneumonia”, the “disease on day 7 after secondary infection” value (C. psittaci; 100 mg/kg) was “marginally increased” and the “CD4+ splenocytes, day 4” value (splenic CD4+ T cells) was 28.0±0.55%. The “chlamydial lung loads after secondary infection” value (C. pneumoniae) was “reduced chlamydial lung loads”, the “gross lung disease after secondary infection” value (C. pneumoniae) was “free of gross lung disease” and the “interstitial pneumonia on day 7 after secondary infection” value (C. pneumoniae) was “completely abolished the development of interstitial pneumonia”.
